Experimental data as given in patent US9150529B2, “Piperazine derivatives, methods for preparing same, and uses thereof in the treatment of insulin resistance” (METABOLYS, priority 2011, dated 2015).

Test system: db/db mouse
Experiment: Antidiabetic activity in db/db mouse (drop in glycaemia after oral administration)
Assay type: in vivo
Settings: 8 weeks old, 200 mg/kg per os, blood from tail, glucometer; for Drop in glycaemia (in % of the initial value) After 1 hour: 1 hour after administration; for Drop in glycaemia (in % of the initial value) After 2 hours: 2 hours after administration
Description: The antidiabetic activity of the compounds of formula (I) orally on a type 2 diabetes animal model, the db/db mouse, was tested. Diabetic mice are used at the age of 8 weeks; they then have very high hyperglycaemia. The animals are stabilised at a minimum for one week after reception and up to the day of experimentation in an animal house at a temperature regulated at 21°-22° C. and subjected to a fixed cycle of light (from 7 a.m. to 7 p.m.) and darkness (from 7 p.m. to 7 a.m.). Their food consisted of a maintenance regime; water and food were supplied “ad libitum”. The mice are treated orally with the product to be tested (200 mg/kg per os) in suspension in a mixture of water and methyl cellulose or the vehicle (mixture of water and methyl cellulose) in the morning of the day of the experimentation. Just before the administration of the product and one and two hours after the administration of the product, a blood sample (one drop of blood) is taken following a small incision in the tail for determining glycaemia. This glycaemia is measured by means of a glucometer (Lifescan OneTouch Ultra, LifeScan, Johnson-Johnson Company) and OneTouchUltra glycaemia measurement strips.

Structure (SMILES) | Drop in glycaemia (in % of the initial value) After 1 hour [%] | Drop in glycaemia (in % of the initial value) After 2 hours [%]
COc1ccc(N2CCN(CCOc3ccc(C(=O)CCC(=O)O)cc3)CC2)cc1 [Compound 2] | 7 | 12
O=C(O)CCC(=O)c1ccc(OCCN2CCN(c3ccccc3F)CC2)cc1 [Compound 3] | 23 | 29
O=C(O)CCC(=O)c1ccc(OCCN2CCN(c3cccc(F)c3)CC2)cc1 [Compound 4] | 9 | 20
O=C(O)CCC(=O)c1ccc(OCCN2CCN(c3ccc(F)cc3)CC2)cc1 [Compound 5] | 5 | 23
O=C(O)CCC(=O)c1ccc(OCCN2CCN(c3ccccn3)CC2)cc1 [Compound 10] | 23 | 39
COc1cccc(N2CCN(CCOc3ccc(C(=O)CCC(=O)O)cc3)CC2)c1 [Compound 12] | 19 | 32
CN(C)C(=N)N=C(N)N [Metformin, reference compound] | 22 | 27
